The results in this text go back to US20260091015A1, “TREATING IRON DEFICIENCY WITH FERRIC CARBOXYMALTOSE” (PHARMACOSMOS HOLDING A/S, priority 2018, published 2026).

One series deals with ionized calcium. Briefly: Ionized calcium, ion-selective electrode, trials IDA-04/IDA-05. The series is classed as in vivo, human. The conditions noted are these: IDA-04 and IDA-05 combined. The text has this: The term “serum ionized calcium” as used herein refers to the level of calcium ions (Ca^2+) in blood serum as measured using the IL GEM Premier 3500 PAK cartridge. The central component is the sensor card, which provides a low volume, gas tight chamber in which the blood sample is presented to the sensors. The pH and electrolyte sensors are all based on the principle of ion-selective electrodes; that is, an electrical potential can be established across a membrane which is selectively permeable to a specific ion. The pH and electrolyte sensors are polyvinyl chloride (PVC) based ion selective electrodes, consisting of an internal Ag/AgCl reference electrode and internal salt layer. The potentials are measured against the card reference electrode. […]
The following safety laboratory assessments were analysed: • S-phosphate: inorganic phosphorous forms an ammonium phosphomolybdate complex having the formula (NH4)3[PO4](MoO3)12 with ammonium molybdate in the presence of sulfuric acid. The complex was determined photometrically in the ultraviolet region (340 nm) of the spectrum using the Roche Modular and Cobas Analyzer. • iFGF23 and cFGF23: the human intact FGF23 was measured by the 2nd generation Elisa kit manufactured by Immonotropics, Inc, San Clemente, CA. […] The human C-terminal FGF23 was measured by the Elisa kit manufactured by Immonotropics, Inc, San Clemente, CA. […]

The test system of series [1] is biochemical bone/muscle markers. Briefly: Biochemical bone/muscle markers (PINP, CTx, bone specific and total alkaline phosphatase), trials IDA-04/IDA-05. The series is classed as in vivo, human. The text has this: The term “serum Bone Specific Alkaline Phosphatase” as used herein refers to the level of Bone specific Alkaline Phosphatase in blood serum as measured using the Beckman-Coulter Ostase assay which is a one-step immunoenzymatic chemiluminescence assay using a mouse monoclonal antibody specific to Bone Specific Alkaline Phosphatase (BAP).
The term “serum Alkaline Phosphatase” as used herein refers to the level of Alkaline Phosphatase in blood serum as measured enzymatically using a Roche Modular Analyzer. In the presence of magnesium and zinc ions, p-nitrophenyl phosphate is cleaved by phosphatase into phosphate and p-nitrophenol. The p-nitrophenol released is proportional to the Alkaline Phosphatase activity and is measured photometrically.
The term “serum N-terminal Propeptide of Type I Collagen (PINP)” as used herein refers to the level of PINP in blood serum as measured using a sandwich principle, electrochemiluminescence immunoassay (ECLIA) on a Cobas e601 Analyzer. During the first incubation, PINP in the sample and a biotinylated monoclonal PINP-specific antibody are incubated together. During the second incubation, streptavidin-coated labelled microparticles and a monoclonal PINP-specific antibody labelled with ruthenium complex (Trs (2,2-bipyridyl)ruthenium (II)-complex (Ru(bpy)23+)) are added to form a sandwich complex, which binds to the solid phase via interaction of biotin and streptavidin. The reaction mixture is aspirated into the measuring cell where the microparticles are magnetically captured onto the surface of the electrode. A voltage is applied to the electrode, which induces chemiluminescent emission, which is measured by a photomultiplier. Results are determined via a calibration curve, which is instrument-specifically generated by a 2-point calibration and a master curve provided via the reagent barcode.
The term “serum Carboxy-terminal Collagen Crosslinks (CTx)” as used herein refers to the level of CTx in blood serum as measured using a sandwich principle, electrochemiluminescence immunoassay (ECLIA) on a Cobas e601 Analyzer. During the first incubation, 50 μL of sample and biotinylated monoclonal anti-beta-CrossLaps antibodies are incubated together. During the second incubation, streptavidin-coated labelled microparticles and a monoclonal P-beta-CrossLaps-specific antibody labelled with ruthenium complex are added to form a sandwich complex, which binds to the solid phase via interaction of biotin and streptavidin. The reaction mixture is aspirated into the measuring cell where the microparticles are magnetically captured onto the surface of the electrode. Unbound substances are then removed with ProCell. A voltage is applied to the electrode, which induces chemiluminescent emission, which is measured by a photomultiplier. Results are determined via a calibration curve, which is instrument-specifically generated by a 2-point calibration and a master curve provided via the reagent barcode.
The trial was a randomized, open-label, comparative trial. Subjects with Iron Deficiency Anaemia (IDA) were randomized 1:1 to one treatment course of one of the following treatments: • Group A: iron isomaltoside 1000 (Monofer®, Pharmacosmos, Holbok, Denmark, termed iron isomaltoside in the following), 1000 mg at baseline • Group B: ferric carboxymaltose (Ferinject®/Injectafer®, Vifor Inc, Switzerland), 750 mg at baseline and day 7, cumulative dose: 1500 mg […]

For the substance ferric carboxymaltose [FCM], the ionized calcium entry in the series with ionized calcium is “decrease”. In series [1] (compared to IMM), the “Alkaline Phosphatase” value is on record as “statistically significant increase”, the “Bone Specific Alkaline Phosphatase” value is reported as “statistically significant increase”, the CTx values entry is “statistically significant lower” and the “N-terminal PINP values” is recorded as “statistically significant lower”. The bone turnover entry in series [1] (treatment according to current practice) was “increased”.
